# Calls of active or inactive are those of the source. No cut-off for these calls is given here.
# Columns and labels:
# [1] = tested on: HeLa; experiment: Cytotoxicity against human HeLa cells under normoxia condition incubated for 48 hrs by MTT assay; assay type: functional, cell-based
# [2] = tested on: HeLa; experiment: Induction of morphological damage in human HeLa cells under normoxia condition by Hoechst 33342 staining based analysis; assay type: functional, cell-based
# [3] = tested on: HeLa; experiment: Induction of morphological change in mitochondria in human HeLa cells under hypoxic condition assessed as onion-like circle formation of cristae folds in inner membrane at 5 uM incubated for 48 hrs by TEM analysis; assay type: functional, cell-based
# [4] = Acute toxicity in BALB/c nude mouse xenografted with human HeLa cells assessed as damage in spleen at 1000 mg/kg, ip by H and E staining based analysis; assay type: organism-based; conditions: in vivo
# [5] = tested on: HeLa; experiment: Induction of apoptosis in human HeLa cells under hypoxic condition assessed as increase in cleaved caspase-3 level at 1 to 10 uM incubated for 48 hrs by Western blot analysis; assay type: functional, cell-based; conditions: dose 1-10 µM
# [6] = tested on: HeLa; experiment: Induction of morphological damage in human HeLa cells under hypoxic condition by Hoechst 33342 staining based analysis; assay type: functional, cell-based
# [7] = tested on: HeLa; experiment: Induction of mitochondrial membrane potential dissipation in human HeLa cells under hypoxic condition assessed as accumulation of green fluorescence at 5 uM incubated for 24 hrs by JC-1 staining based CLSM analysis; assay type: functional, cell-based
# [8] = Acute toxicity in BALB/c nude mouse xenografted with human HeLa cells assessed as damage in heart at 1000 mg/kg, ip by H and E staining based analysis; assay type: organism-based; conditions: in vivo
# [9] = Acute toxicity in BALB/c nude mouse xenografted with human HeLa cells assessed as damage in lung at 1000 mg/kg, ip by H and E staining based analysis; assay type: organism-based; conditions: in vivo
# [10] = tested on: HepG2; experiment: Cytotoxicity against human HepG2 cells under normoxia condition incubated for 48 hrs by MTT assay; assay type: functional, cell-based; conditions: HepG2, 48 h
# [11] = tested on: HeLa; experiment: Induction of apoptosis in human HeLa cells under hypoxic condition assessed as viable cells at 5 uM incubated for 48 hrs by Annexin V-FITC/PI staining based flow cytometry (reference value: 98.13 %); assay type: functional; conditions: read-out: Activity
# [12] = tested on: HeLa; experiment: Induction of morphological change in mitochondria in human HeLa cells under hypoxic condition assessed as formation of vacuoles at 5 to 10 uM incubated for 48 hrs by TEM analysis; assay type: functional, cell-based; conditions: dose 5-10 µM
# [13] = Acute toxicity in BALB/c nude mouse xenografted with human HeLa cells assessed as damage in kidney at 1000 mg/kg, ip by H and E staining based analysis; assay type: organism-based; conditions: in vivo
# [14] = tested on: HeLa; experiment: Cytotoxicity against human HeLa cells under hypoxic condition incubated for 48 hrs by MTT assay; assay type: functional, cell-based
# [15] = tested on: HeLa; experiment: Induction of mitophagy in human HeLa cells under hypoxic condition assessed as co-localization of mitochondria and lysosomes at 5 uM incubated for 24 hrs by CLSM analysis; assay type: functional, cell-based
# [16] = tested on: HeLa; experiment: Induction of apoptosis in human HeLa cells under hypoxic condition assessed as early apoptotic cells at 5 uM incubated for 48 hrs by Annexin V-FITC/PI staining based flow cytometry (reference value: 0.60 %); assay type: functional
# [17] = tested on: HeLa; experiment: Induction of mitochondrial membrane potential dissipation in human HeLa cells under hypoxic condition at 5 uM incubated for 24 hrs by flow cytometry; assay type: functional, cell-based
# [18] = tested on: HeLa; experiment: Induction of mitophagy in human HeLa cells under hypoxic condition assessed as encapsulation of mitochondria in vacuoles at 10 uM incubated for 48 hrs by TEM analysis; assay type: functional, cell-based
# [19] = Toxicity in BALB/c nude mouse xenografted with human HeLa cells assessed as body weight change at 25 to 50 mg/kg, ip qd for 14 days; assay type: organism-based; conditions: in vivo, 336 h, dose 25-50 mg/kg, time 14 day
# [20] = tested on: HeLa; experiment: Antitumor activity against human HeLa cells xenografted in BALB/c nude mouse at 50 mg/kg, ip qd for 14 days relative to control; assay type: functional; conditions: 336 h, time 14 day, read-out: TGI
# [21] = tested on: HeLa; experiment: Antitumor activity against human HeLa cells xenografted in BALB/c nude mouse assessed as tumor growth suppression at 25 to 50 mg/kg, ip qd for 14 days; assay type: functional, organism-based; conditions: dose 25-50 mg/kg, time 14.0 day
# [22] = tested on: HeLa; experiment: Induction of morphological change in mitochondria in human HeLa cells under hypoxic condition assessed as increase in IMMT level at 5 uM incubated for 48 hrs by immunofluorescence based analysis; assay type: functional, cell-based
# [23] = tested on: HeLa; experiment: Induction of apoptosis in human HeLa cells under hypoxic condition assessed as necrotic cells at 5 uM incubated for 48 hrs by Annexin V-FITC/PI staining based flow cytometry (reference value: 1.17 %); assay type: functional
# [24] = tested on: HeLa; experiment: Induction of morphological change in mitochondria in human HeLa cells under hypoxic condition assessed as formation of multi-lamellar globules at 5 uM incubated for 48 hrs by TEM analysis; assay type: functional, cell-based
# [25] = tested on: HeLa; experiment: Induction of mitophagy in human HeLa cells under hypoxic condition assessed as decrease in p62 level incubated for 24 hrs by Western blot analysis; assay type: functional, cell-based; conditions: dose 1-10 µM
# [26] = tested on: HeLa; experiment: Induction of mitophagy in human HeLa cells under hypoxic condition assessed as increase in ratio of LC3-II to LC3-I levels incubated for 24 hrs by Western blot analysis; assay type: functional, cell-based; conditions: dose 1-10 µM
# [27] = Acute toxicity in BALB/c nude mouse xenografted with human HeLa cells assessed as damage in liver at 1000 mg/kg, ip by H and E staining based analysis; assay type: organism-based; conditions: in vivo
# [28] = tested on: HeLa; experiment: Antitumor activity against human HeLa cells xenografted in BALB/c nude mouse at 25 mg/kg, ip qd for 14 days relative to control; assay type: functional; conditions: 336 h, time 14 day, read-out: TGI
# [29] = tested on: HeLa; experiment: Induction of apoptosis in human HeLa cells under hypoxic condition assessed as increase in cleaved PARP-1 level at 1 to 10 uM incubated for 48 hrs by Western blot analysis; assay type: functional, cell-based; conditions: dose 1-10 µM
# [30] = tested on: HeLa; experiment: Induction of morphological change in mitochondria in human HeLa cells under hypoxic condition assessed as disappearance of cristae at 5 to 10 uM incubated for 48 hrs by TEM analysis; assay type: functional, cell-based; conditions: dose 5-10 µM
# [31] = tested on: HepG2; experiment: Cytotoxicity against human HepG2 cells under hypoxic condition incubated for 48 hrs by MTT assay; assay type: functional, cell-based; conditions: HepG2, 48 h
# [32] = tested on: HeLa; experiment: Induction of apoptosis in human HeLa cells under hypoxic condition assessed as late apoptotic cells at 5 uM incubated for 48 hrs by Annexin V-FITC/PI staining based flow cytometry (reference value: 0.10 %); assay type: functional
# [33] = Toxicity in BALB/c nude mouse xenografted with human HeLa cells assessed as animal mortality at 25 to 50 mg/kg, ip qd for 14 days; assay type: organism-based; conditions: in vivo, dose 25-50 mg/kg, time 14 day
smiles,measurement,setting,value
COc1ccc(C(=O)/C=C/c2cccc([N+](=O)[O-])c2)cc1F,IC50,[1],> 50 µM
same,Activity,[2],inactive
same,Activity,[3],Active
same,Activity,[4],Non-toxic
same,Activity,[5],Active
same,Activity,[6],Active
same,Activity,[7],Active
same,Activity,[8],Non-toxic
same,Activity,[9],Non-toxic
same,IC50,[10],> 50 µM
same,viability at 5 µM,[11],18.8%
same,Activity,[12],Active
same,Activity,[13],Non-toxic
same,IC50,[14],3.3 µM
same,Activity,[15],Active
same,Activity,[16],10.21%
same,Activity,[17],Active
same,Activity,[18],Active; Result Indicates That Mitochondria Were Removed From Cells Through Autophagosomes
same,Activity,[19],Non-toxic
same,inhibition in vivo at 50 mg/kg,[20],57.4%
same,Activity,[21],Active
same,Activity,[22],Active
same,Activity,[23],7.74%
same,Activity,[24],Active
same,Activity,[25],Active
same,Activity,[26],Active
same,Activity,[27],Non-toxic
same,inhibition in vivo at 25 mg/kg,[28],30.3%
same,Activity,[29],Active
same,Activity,[30],Active
same,IC50,[31],5 µM
same,Activity,[32],63.25%
COc1ccc(C(=O)/C=C/c2cccc(N)c2)cc1F,Activity,[9],Non-toxic
same,Activity,[27],Non-toxic
same,mortality at 336 h,[33],50%
COc1ccc(C(=O)/C=C/c2ccc(OC)c([N+](=O)[O-])c2)cc1Br,IC50,[1],> 100 µM
same,IC50,[10],> 50 µM
same,IC50,[14],15.1 µM
same,IC50,[31],15.4 µM
COc1ccc(/C=C/C(=O)c2ccc(OCc3cn(CCCC[P+](c4ccccc4)(c4ccccc4)c4ccccc4)nn3)c(Br)c2)cc1[N+](=O)[O-],IC50,[1],10.7 µM
same,IC50,[10],21.6 µM
same,IC50,[14],> 50 µM
same,IC50,[31],19.3 µM
COc1ccc(C(=O)/C=C/c2ccc(OC)c([N+](=O)[O-])c2)cc1F,IC50,[1],> 100 µM
same,IC50,[10],> 50 µM
same,IC50,[14],> 50 µM
same,IC50,[31],23.1 µM
O=C(/C=C/c1cccc([N+](=O)[O-])c1)c1ccc(OCc2cn(CCCC[P+](c3ccccc3)(c3ccccc3)c3ccccc3)nn2)c(Br)c1,IC50,[1],> 50 µM
same,IC50,[10],12.8 µM
same,IC50,[14],> 50 µM
same,IC50,[31],26.5 µM
